Data as given in patent US9931351B2, “Method for improving leptin resistance” (Kyoto University, priority 2013, dated 2018).

Legend:
Type in all cases: in vivo
[1] = test system: wild type mice under the high fat diet condition; experiment: Test Example 1: effects to improve metabolism in wild type mice under a high fat diet condition; conditions: 60% high fat diet, 50 mg/kg/day intraperitoneal once a day, four weeks; for weight of the adipose tissues: epididymal
Protocol: Eight-week old male wild type mice and transgenic mice overexpressing leptin (LepTg) (Ogawa et al. Diabetes 48: 1822-1829, 1999, prepared in Department of Endocrinology and Metabolism, Kyoto University) were divided into three treatment groups, respectively: “standard diet (SD)+vehicle (V)”, “60% high fat diet (HFD)+vehicle”, and “60% high fat diet+Compound 57”. The mice were kept for four weeks with ad libitum feeding, and the body weight and the food intake of the mice were measured. The vehicle and Compound 57 were administered to the mice by intraperitoneal injection once a day. The dosage of Compound 57 was 50 mg/kg/day. After the four weeks the mice were sacrificed and blood, epididymal adipose tissues, and the liver were collected. The weight of the adipose tissues, the liver weight, the liver triglyceride levels, and the plasma levels of glucose, insulin, total cholesterol (T-chol), triglyceride (TG), and nonesterified fatty acid (NEFA) were measured (n=5 for each group). The equivalent dosage of Compound 32 was tested in a similar manner (n=5 for each group).

[2] = test system: leptin-deficient ob/ob mice; experiment: Test Example 2: effects to improve metabolism in leptin-deficient ob/ob mice; conditions: standard diet, 50 mg/kg/day intraperitoneal once a day, four weeks; for weight of the adipose tissues: epididymal; for nonesterified fatty acid levels / total cholesterol levels / triglyceride levels: plasma
Protocol: Ob/ob mice cannot produce leptin due to a mutation in the leptin gene (Zhang et al. Nature 372: 425-432, 1994). Eight-week old male ob/ob mice, purchased from CHARLES RIVER LABORATORIES JAPAN, INC., were divided into two treatment groups: “Vehicle (V)” and “Compound 57”. The mice were kept for four weeks with ad libitum feeding of standard diet (SD), and the body weight and the food intake of the mice were measured. The vehicle and Compound 57 were administered to the mice by intraperitoneal injection once a day. The dosage of Compound 57 was 50 mg/kg/day. After the four weeks the mice were sacrificed and blood, epididymal adipose tissues, and the liver were collected. The weight of the adipose tissues, the liver weight, the liver triglyceride levels, and the plasma levels of glucose, insulin, total cholesterol (T-chol), triglyceride (TG) and nonesterified fatty acid (NEFA) were measured (n=5 for each group). The equivalent dosage of Compound 32 was tested in a similar manner (n=5 for each group).

[3] = test system: A-ZIP/F-1 mice; experiment: Test Example 3: effects to improve metabolism in A-ZIP/F-1 mice, a model of generalized lipodystrophy; conditions: standard diet, 50 mg/kg/day intraperitoneal once a day, four weeks; for level of nonesterified fatty acid / level of total cholesterol / level of triglyceride: plasma
From the text: A-ZIP/F-1 mice, which are used as a model of generalized lipodystrophy, have substantially no white adipocyte and thus cannot produce leptin (Moitra et al. Genes Dev 12: 3168-3181, 1998). Eight-week old male A-ZIP/F-1 mice, gifted from Dr. Reitman of National Institutes of Health, were divided into two treatment groups: “Vehicle (V)” and “Compound 57”. The mice were kept for four weeks with ad libitum feeding of standard diet (SD), and the body weight and the food intake of the mice were measured. The vehicle and Compound 57 were administered to the mice by intraperitoneal injection once a day. The dosage of Compound 57 was 50 mg/kg/day. After the four weeks the mice were sacrificed and blood, epididymal adipose tissues, and the liver were collected. The weight of the adipose tissues, the liver weight, the liver triglyceride levels, the plasma levels of glucose, insulin, total cholesterol (T-chol), triglyceride (TG) and nonesterified fatty acid (NEFA) were measured (n=5 for each group). The equivalent dosage of Compound 32 was tested in a similar manner (n=5 for each group).

[4] = test system: wild type mice having diet-induced obesity; experiment: Test Example 4: effects to improve metabolism in wild type mice having diet-induced obesity caused by a high fat diet; conditions: wild type mice obese after four-week high fat diet, continued high fat diet, 50 mg/kg/day intraperitoneal once a day, further four weeks
Protocol: Eight-week old male wild type mice and transgenic mice overexpressing leptin (LepTg) (see Test Example 1) were divided into two groups, respectively (n=4 and 12), and kept for four weeks under a standard diet (SD) or a high fat diet (HFD) condition. All the mice fed with the standard diet for the four weeks were assigned to the group “vehicle (V)” and fed with the standard diet for further four weeks, and then the body weight and the food intake of the mice were measured. The mice fed with the high fat diet for the four weeks were divided into three groups: “vehicle (V)”, “Compound 57”, and “Compound 32”, and fed with the high fat diet for further four weeks, and then the body weight and the food intake of the mice were measured. The vehicle, Compound 57, and Compound 32 were administered to the mice by intraperitoneal injection once a day. The each dosage of Compounds 57 and 32 was 50 mg/kg/day. Finally the mice were sacrificed and blood, epididymal adipose tissues, and the liver were collected. The weight of the adipose tissues, the liver weight, and the plasma levels of glucose and triglyceride were measured (n=4 for each group).

[5] = test system: wild type rats under the high fat diet condition; experiment: Test Example 5: effects to improve metabolism in wild type rats under a high fat diet condition; conditions: 60% high fat diet, 20 mg/kg/day intraperitoneal once a day, four weeks
Protocol: Eight-week old male wild type rats were divided into four treatment groups: “standard diet (SD)+vehicle (V)”, “60% high fat diet (HFD)+vehicle”, “60% high fat diet+Compound 57”, and “60% high fat diet+Compound 32”. The rats were kept for four weeks with ad libitum feeding, and the body weight of the rats was measured. The vehicle, Compound 32 and Compound 57 were administered to the rats by intraperitoneal injection once a day. The each dosage of Compounds 32 and 57 was 20 mg/kg/day. After the four weeks the rats were sacrificed, blood was collected, and the plasma levels of glucose and insulin were measured (n=5 for each group).

SMILES	body weight [1]	food intake [1]	liver triglyceride levels [1]	liver weight [1]	plasma insulin levels [1]	plasma level of nonesterified fatty acid [1]	plasma level of total cholesterol [1]	plasma level of triglyceride [1]	random plasma glucose levels [1]	weight of the adipose tissues [1]	body weight [2]	food intake [2]	liver triglyceride levels [2]	liver weight [2]	plasma insulin levels [2]	random plasma glucose levels [2]	weight of the adipose tissues [2]	nonesterified fatty acid levels [2]	total cholesterol levels [2]	triglyceride levels [2]	other results
Cc1cc(F)ccc1-c1ccc(/N=N/c2cc(S(=O)(=O)[O-])c3ccccc3c2N)cn1.[Na+] [Compound 32, 4-amino-3-[6-(4-fluoro-2-methylphenyl)pyridine-3-ylazo]naphthalene-1-sulfonic acid sodium salt]	did not increase	did not increase	did not increase	did not increase	did not increase	did not increase	did not increase	did not increase	did not increase	did not increase	did not	did not change	did not change	did not change	did not change	did not change	did not change	did not change	did not change	did not change	body weight [3]: did not; food intake [3]: did not change; liver triglyceride levels [3]: did not change; liver weight [3]: did not change; plasma insulin levels [3]: did not change; random plasma glucose levels [3]: did not change; level of nonesterified fatty acid [3]: did not change; level of total cholesterol [3]: did not change; level of triglyceride [3]: did not change; blood level of glucose [4]: decreased; blood level of triglyceride [4]: decreased; body weight [4]: decreased; plasma insulin levels [5]: did not increase; random plasma glucose levels [5]: did not increase; weight gain caused by the high fat diet [5]: not observed
Nc1c(/N=N/c2ccc(-c3cccc4c3sc3ccccc34)nc2)cc(S(=O)(=O)[O-])c2ccccc12.[Na+] [Compound 57, 4-amino-3-(6-dibenzothiophene-4-ylpyridine-3-ylazo)naphthalene-1-sulfonic acid sodium salt]	did not increase	did not increase	did not increase	did not increase	did not increase	did not increase	did not increase	did not increase	did not increase	did not increase	decreased	did not change	decreased	decreased	did not change	did not change	decreased	decreased	decreased	did not clearly change	body weight [3]: slightly decreased; food intake [3]: did not change; liver triglyceride levels [3]: decreased; liver weight [3]: decreased; plasma insulin levels [3]: did not change; random plasma glucose levels [3]: did not change; level of nonesterified fatty acid [3]: decreased; level of total cholesterol [3]: decreased; level of triglyceride [3]: decreased; blood level of glucose [4]: decreased; blood level of triglyceride [4]: decreased; body weight [4]: decreased; food intake [4]: significantly decreased; plasma insulin levels [5]: did not increase; random plasma glucose levels [5]: did not increase; weight gain caused by the high fat diet [5]: not observed
